Assays:
Type in all cases: biochemical
[1] = molecular target: FAAH (Homo sapiens (Human), UniProt O00519); assay: In vitro competitive activity-based protein profiling, human proteomes (prefrontal cortex or PC3 cell membrane fractions); details: human proteome; for inhibition at 1 µM: read-out: FAAH % inh. 1 μM (human)
Procedure, shortened: (§1)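 Activity of MAGL and FAAH was quantified from fluorescent gel band intensities. Beforehand, inhibitors at several concentrations competed against subsequent probe labelling (FP-Rh, JW912 or HT-01) in species-matched proteomes, each step 30 min at 37° C.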

[2] = molecular target: MAGL (Homo sapiens (Human), UniProt Q99685); assay: as above; details: human proteome; for inhibition at 1 µM: read-out: MAGL % inh. 1 μM (human); for inhibition at 10 µM: read-out: MAGL % inh. (human) @ 10 μM
Procedure, shortened: as §1

[3] = molecular target: FAAH (Mus musculus (Mouse), UniProt O08914); assay: In vitro competitive activity-based protein profiling, mouse proteomes (brain membrane fraction or cell lysates); details: mouse proteome, read-out: FAAH % inh. 1 μM (mouse)
Procedure, shortened: as §1

[4] = molecular target: MAGL (Mus musculus (Mouse), UniProt O35678); assay: as above; details: mouse proteome, read-out: MAGL % inh. 1 μM (mouse)
Procedure, shortened: as §1

Chain of FAAH (Mus musculus (Mouse), UniProt O08914) (O08914 whole entry): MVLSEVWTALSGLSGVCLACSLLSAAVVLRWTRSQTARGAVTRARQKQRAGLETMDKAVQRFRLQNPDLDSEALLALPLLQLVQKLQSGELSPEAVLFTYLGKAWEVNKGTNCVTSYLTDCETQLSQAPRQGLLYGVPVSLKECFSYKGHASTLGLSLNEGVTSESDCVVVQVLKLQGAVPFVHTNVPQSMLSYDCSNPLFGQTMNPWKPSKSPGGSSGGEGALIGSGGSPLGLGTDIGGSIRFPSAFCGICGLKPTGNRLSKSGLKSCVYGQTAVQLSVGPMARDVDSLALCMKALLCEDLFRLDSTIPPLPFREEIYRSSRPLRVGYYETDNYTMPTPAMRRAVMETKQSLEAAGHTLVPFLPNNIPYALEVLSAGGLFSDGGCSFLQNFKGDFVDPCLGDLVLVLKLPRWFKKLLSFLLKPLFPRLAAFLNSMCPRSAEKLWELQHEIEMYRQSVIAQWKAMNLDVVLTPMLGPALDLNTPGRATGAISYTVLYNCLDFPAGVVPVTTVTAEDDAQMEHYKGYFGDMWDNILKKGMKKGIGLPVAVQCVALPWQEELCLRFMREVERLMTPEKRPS
Chain of MAGL (Homo sapiens (Human), UniProt Q99685) (Q99685 whole entry): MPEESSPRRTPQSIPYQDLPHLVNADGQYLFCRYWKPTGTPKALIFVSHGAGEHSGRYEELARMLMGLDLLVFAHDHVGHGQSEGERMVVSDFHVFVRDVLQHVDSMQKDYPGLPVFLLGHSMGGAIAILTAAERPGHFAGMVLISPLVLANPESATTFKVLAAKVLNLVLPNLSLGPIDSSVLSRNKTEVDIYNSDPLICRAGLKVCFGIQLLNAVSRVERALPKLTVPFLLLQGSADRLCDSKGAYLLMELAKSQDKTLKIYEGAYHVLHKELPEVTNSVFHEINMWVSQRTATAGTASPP
Chain of FAAH (Homo sapiens (Human), UniProt O00519) (O00519 whole entry): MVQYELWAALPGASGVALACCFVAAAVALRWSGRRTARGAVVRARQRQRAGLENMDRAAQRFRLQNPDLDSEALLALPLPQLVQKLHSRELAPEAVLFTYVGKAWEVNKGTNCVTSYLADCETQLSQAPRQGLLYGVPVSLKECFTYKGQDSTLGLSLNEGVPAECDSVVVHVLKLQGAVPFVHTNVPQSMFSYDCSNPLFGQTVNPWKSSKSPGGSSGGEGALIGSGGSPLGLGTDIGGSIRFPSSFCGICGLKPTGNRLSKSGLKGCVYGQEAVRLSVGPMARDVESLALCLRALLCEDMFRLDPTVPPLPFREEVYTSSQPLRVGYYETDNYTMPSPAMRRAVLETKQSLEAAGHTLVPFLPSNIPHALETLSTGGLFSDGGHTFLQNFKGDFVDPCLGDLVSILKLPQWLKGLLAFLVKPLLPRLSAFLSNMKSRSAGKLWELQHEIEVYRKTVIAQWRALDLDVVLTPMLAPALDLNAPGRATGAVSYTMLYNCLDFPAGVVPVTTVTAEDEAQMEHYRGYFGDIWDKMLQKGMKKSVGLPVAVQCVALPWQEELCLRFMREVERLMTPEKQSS
Chain of MAGL (Mus musculus (Mouse), UniProt O35678) (O35678 whole entry): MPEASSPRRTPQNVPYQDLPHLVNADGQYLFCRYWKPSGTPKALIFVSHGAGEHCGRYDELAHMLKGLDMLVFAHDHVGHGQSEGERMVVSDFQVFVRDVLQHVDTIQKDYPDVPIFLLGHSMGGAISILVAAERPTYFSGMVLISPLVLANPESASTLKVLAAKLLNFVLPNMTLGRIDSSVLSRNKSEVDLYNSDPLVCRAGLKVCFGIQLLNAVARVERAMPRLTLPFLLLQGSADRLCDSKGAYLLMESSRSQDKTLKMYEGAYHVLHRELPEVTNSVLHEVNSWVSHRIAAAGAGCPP

inhibition at 1 µM [1] | inhibition at 1 µM [2] | inhibition at 1 µM [3] | inhibition at 1 µM [4] | IC50 [1] | IC50 [2] | inhibition at 10 µM [2] | Structure (SMILES)
0 to 25% | > 75% | 0 to 25% | > 75% |  |  |  | Cc1c(CN2CCN(C(=O)n3ccc(NS(C)(=O)=O)n3)CC2)[nH]c2c(Cl)cccc12 [Example 65, N-(1-(4-((7-Chloro-3-methyl-1H-indol-2-yl)methyl)piperazine-1-carbonyl)-1H-pyrazol-3-yl)methanesulfonamide]
0 to 25% | 50 to 75% | > 75% | 50 to 75% |  |  |  | CN(Cc1ccc(N2CCCC2)cc1C(F)(F)F)[C@H]1C[C@@H]2CN(C(=O)n3ccc(NS(C)(=O)=O)n3)C[C@@H]2C1 [Example 50, N-(1-((3aR,5r,6aS)-5-(Methyl(4-(pyrrolidin-1-yl)-2-(trifluoromethyl)benzyl)amino)octahydrocyclopenta[c]pyrrole-2-carbonyl)-1H-pyrazol-3-yl)methanesulfonamide]
25 to 50% | > 75% | 25 to 50% | > 75% |  |  |  | CS(=O)(=O)Nc1ccn(C(=O)N2CCN(Cc3cc4c(Cl)cccc4s3)CC2)n1 [Example 67, N-(1-(4-((4-Chlorobenzo[b]thiophen-2-yl)methyl)piperazine-1-carbonyl)-1H-pyrazol-3-yl)methanesulfonamide]
 |  | > 75% | > 75% | 0.1 to 1 µM | < 0.1 µM |  | CC(=O)Nc1ccn(C(=O)N2CC3CN(Cc4cc(Cl)cc(N5CCCC5)c4)CC3C2)n1 (stereo not drawn) [Example 172, N-(1-(5-(3-Chloro-5-(pyrrolidin-1-yl)benzyl)octahydropyrrolo[3,4-c]pyrrole-2-carbonyl)-1H-pyrazol-3-yl)acetamide]
0 to 25% | > 75% | 0 to 25% | > 75% |  |  |  | C[C@H]1CN(C(=O)n2ccc(NS(C)(=O)=O)n2)CCN1Cc1cnc(Cl)c(N2CCC(F)CC2)c1 [Example 31, (S)—N-(1-(4-((6-chloro-5-(4-fluoropiperidin-1-yl)pyridin-3-yl)methyl)-3-methylpiperazine-1-carbonyl)-1H-pyrazol-3-yl)methanesulfonamide]
 |  | 25 to 50% | > 75% | 1 to 10 µM | < 0.1 µM |  | CC(=O)Nc1ccn(C(=O)N2CCC3(CCCN3Cc3cc4cc(Cl)cc(Cl)c4[nH]3)CC2)n1 [Example 13, N-(1-(1-((5,7-dichloro-1H-indol-2-yl)methyl)-1,8-diazaspiro[4.5]decane-8-carbonyl)-1H-pyrazol-3-yl)acetamide]
0 to 25% | 25 to 50% | 0 to 25% | 0 to 25% |  |  |  | CS(=O)(=O)Nc1ccn(C(=O)N2CC3CN(Cc4ccc(Cl)c(N5CC6COCC6C5)c4)CC3C2)n1 (stereo not drawn) [Example 140, N-(1-(5-(4-chloro-3-(Tetrahydro-1H-furo[3,4-c]pyrrol-5(3H)-yl)benzyl)octahydropyrrolo[3,4-c]pyrrole-2-carbonyl)-1H-pyrazol-3-yl)methanesulfonamide]
0 to 25% | > 75% | 0 to 25% | > 75% | 1 to 10 µM | < 0.1 µM |  | CC(=O)Nc1ccn(C(=O)N2CCC3(CCCN3Cc3cc4cc(Cl)c(Cl)cc4[nH]3)CC2)n1 [Example 43, N-(1-(1-((5,6-Dichloro-1H-indol-2-yl)methyl)-1,8-diazaspiro[4.5]decane-8-carbonyl)-1H-pyrazol-3-yl)acetamide]
0 to 25% | 25 to 50% | 0 to 25% | 50 to 75% |  |  |  | CC(=O)Nc1ccn(C(=O)N2CCC3(CCCN3Cc3cc4cc(C(=O)O)ccc4[nH]3)CC2)n1 [Example 49, 2-((8-(3-Acetamido-1H-pyrazole-1-carbonyl)-1,8-diazaspiro[4.5]decan-1-yl)methyl)-1H-indole-5-carboxylic acid]
0 to 25% | > 75% | 0 to 25% | > 75% |  |  |  | CS(=O)(=O)Nc1ccn(C(=O)N2CCC(Oc3ccc(Cl)c(OC4CCCC4)c3)CC2)n1 [Example 6, N-(1-(4-(4-chloro-3-(cyclopentyloxy)phenoxy)piperidine-1-carbonyl)-1H-pyrazol-3-yl)methanesulfonamide]
0 to 25% | > 75% | 25 to 50% | > 75% |  |  |  | CS(=O)(=O)Nc1ccn(C(=O)N2CCC(Oc3ccc(C(F)(F)F)cc3-c3nccs3)CC2)n1 [Example 15, N-(1-(4-(2-(thiazol-2-yl)-4-(trifluoromethyl)phenoxy)piperidine-1-carbonyl)-1H-pyrazol-3-yl)methanesulfonamide]
25 to 50% | > 75% | 25 to 50% | > 75% |  |  |  | CC(=O)Nc1ccn(C(=O)N2CC3CN(Cc4cc(Cl)cc(C(C)(C)O)c4)CC3C2)n1 (stereo not drawn) [Example 16, N-(1-(5-(3-chloro-5-(2-hydroxypropan-2-yl)benzyl)octahydropyrrolo[3,4-c]pyrrole-2-carbonyl)-1H-pyrazol-3-yl)acetamide]
0 to 25% |  | 0 to 25% | 0 to 25% |  |  | > 75% | CS(=O)(=O)Nc1ccn(C(=O)N2CCC3(CCCN3Cc3ccc(C(F)(F)F)cc3NCCCC(=O)O)CC2)n1 [Example 1, 4-((2-((8-(3-(methylsulfonamido)-1H-pyrazole-1-carbonyl)-1,8-diazaspiro[4.5]decan-1-yl)methyl)-5-(trifluoromethyl)phenyl)amino)butanoic acid]
0 to 25% | > 75% | 0 to 25% | > 75% |  |  |  | CS(=O)(=O)Nc1ccn(C(=O)N2CCC(Oc3ccc(C(F)(F)F)cc3NCC(=O)O)CC2)n1 [Example 99, (2-((1-(3-(Methylsulfonamido)-1H-pyrazole-1-carbonyl)piperidin-4-yl)oxy)-5-(trifluoromethyl)phenyl)glycine]
0 to 25% | > 75% | 0 to 25% | > 75% |  |  |  | CS(=O)(=O)Nc1ccn(C(=O)N2CCC(Oc3ccc(C(F)(F)F)nc3N3CCCC3)CC2)n1 [Example 95, N-(1-(4-((2-(Pyrrolidin-1-yl)-6-(trifluoromethyl)pyridin-3-yl)oxy)piperidine-1-carbonyl)-1H-pyrazol-3-yl)methanesulfonamide]
0 to 25% | > 75% | 0 to 25% | > 75% |  |  |  | CC(=O)Nc1ccn(C(=O)N2CCC3(CC2)CN(Cc2ccc(C(N)=O)c(C(F)(F)F)c2)C3)n1 [Example 126, 4-((7-(3-Acetamido-1H-pyrazole-1-carbonyl)-2,7-diazaspiro[3.5]nonan-2-yl)methyl)-2-(trifluoromethyl)benzamide]
0 to 25% | > 75% | 0 to 25% | > 75% | 1 to 10 µM | < 0.1 µM |  | CC(=O)Nc1ccn(C(=O)N2CCC3(CCN(Cc4cc(C(F)(F)F)cc(C5(C(=O)O)CCCC5)c4)C3)CC2)n1 [Example 25, 1-(3-((8-(3-Acetamido-1H-pyrazole-1-carbonyl)-2,8-diazaspiro[4.5]decan-2-yl)methyl)-5-(trifluoromethyl)phenyl)cyclopentane-1-carboxylic acid]
25 to 50% | > 75% | > 75% | 25 to 50% |  |  |  | CS(=O)(=O)Nc1ccn(C(=O)N2CC3CN(Cc4cccc(C(F)(F)F)c4)CC3C2)n1 (stereo not drawn) [Example 114, N-(1-(5-(3-(Trifluoromethyl)benzyl)octahydropyrrolo[3,4-c]pyrrole-2-carbonyl)-1H-pyrazol-3-yl)methanesulfonamide]
0 to 25% | > 75% | 0 to 25% | > 75% |  |  |  | CC(=O)Nc1ccn(C(=O)N2CCN(Cc3cc(Cl)cc(Cl)c3)CC2)n1 [Example 144, N-(1-(4-(3,5-Dichlorobenzyl)piperazine-1-carbonyl)-1H-pyrazol-3-yl)acetamide]
0 to 25% | > 75% | 0 to 25% | > 75% |  |  |  | CC(=O)Nc1ccn(C(=O)N2CCN(Cc3ccc(Cl)cc3OCC(=O)O)CC2)n1 [Example 3, 2-(2-((4-(3-acetamido-1H-pyrazole-1-carbonyl)piperazin-1-yl)methyl)-5-chlorophenoxy)acetic acid]
0 to 25% |  | 0 to 25% | 0 to 25% |  |  | 50 to 75% | CS(=O)(=O)Nc1ccn(C(=O)N2CCN(Cc3ccc(C(N)=O)c(C(F)(F)F)c3)CC2)n1 [Example 10, 4-((4-(3-(methylsulfonamido)-1H-pyrazole-1-carbonyl)piperazin-1-yl)methyl)-2-(trifluoromethyl)benzamide]
0 to 25% | > 75% | 0 to 25% | 50 to 75% |  |  |  | CS(=O)(=O)Nc1ccn(C(=O)N2CCN(Cc3ccc(C(F)(F)F)c(-c4nnco4)c3)CC2)n1 [Example 116, N-(1-(4-(3-(1,3,4-Oxadiazol-2-yl)-4-(trifluoromethyl)benzyl)piperazine-1-carbonyl)-1H-pyrazol-3-yl)methanesulfonamide]
0 to 25% | 50 to 75% | 0 to 25% | 50 to 75% |  |  |  | CS(=O)(=O)Nc1ccn(C(=O)N2CCC(Oc3ccc(C(F)(F)F)cc3N3CCCC3=O)CC2)n1 [Example 100, N-(1-(4-(2-(2-Oxopyrrolidin-1-yl)-4-(trifluoromethyl)phenoxy)piperidine-1-carbonyl)-1H-pyrazol-3-yl)methanesulfonamide]
